Tests used:
[1] = Pharmacokinetics assay in rats after intragastrical administration; type: in vivo; conditions: both sexes, Sprague-Dawley (SD), rat, plasma, po, 2 mg/kg; for Vd/F: read-out: Apparent distribution volume Vz/F; for AUC: read-out: Area under curve AUC; for bioavailability: read-out: Bioavailability F; for CL/F: read-out: Clearance CL/F; for half-life: read-out: Half-life T½ (converted); for Cmax: read-out: Plasma concentration Cmax; for MRT: read-out: Residence time MRT
Description: Rats were used as test animals. The drug concentration in plasma at different time points was determined by LC/MS/MS method after intragastrical administration of the compounds of Example 2, Example 11, Example 12, Example 15, Example 31 and Example 33 to rats. The pharmacokinetic behavior of the compounds of the present disclosure was studied and evaluated in rats.
Twenty-four healthy adult SD rats (half male and half female, equally divided into six groups, four rats per group) were purchased from Shanghai Jiesijie Laboratory Animal Co., LTD.
A certain amount of the test compound was weighed, to which 5% of DMSO, 5% of tween 80 and 90% of normal saline were added to prepare a 0.2 mg/mL colorless, clear and transparent solution.
After an overnight fast, SD rats were intragastrically administered the test compound at an administration dose of 2.0 mg/kg and an administration volume of 10.0 mL/kg.
The rats were intragastrically administered the compounds of Example 2, Example 11, Example 12, Example 15, Example 31 and Example 33. 0.2 ml of blood was taken from the orbit before the administration and at 0.5, 1.0, 2.0, 4.0, 6.0, 8.0, 11.0 and 24.0 hours after the administration. The samples were stored in heparinized tubes, and centrifuged for 10 minutes at 10000 rpm and 4° C. to separate the blood plasma. The plasma samples were stored at −20° C. The rats were fed 2 hours after the administration.
The content of the test compound in the plasma of rats after intragastrical administration of the test compound at different concentrations was determined: 25 μL of rat plasma at each time point after the administration was taken, to which 30 μL of the internal standard solution and 175 μL of acetonitrile were added. The resulting solution was vortex-mixed for 5 minutes, and centrifuged for 10 minutes (3700 rpm). 0.5 μL of the supernatant was taken from the plasma samples for LC/MS/MS analysis.

[2] = molecular target: T1, Nav1.8 ion channel stably expressed on HEK293 cells (Homo sapiens, UniProt Q9Y5Y9); experiment: Inhibitory activity on Nav1.8, manual patch clamp; type: cell-based; conditions: resting, clamped at -80 mV, 1 μM TTX, read-out: IC50 on inhibiting the Nav1.8 channel activity
T1 construct: expressed in transfected cells; host or cells: HEK293
Excerpt: The purpose of the experiment is to investigate the effect of the compounds on Nav1.8 ion channel in an in vitro experiment, wherein the Nav1.8 ion channel is stably expressed on HEK293 cells. After the Nav1.8 current becomes stable, the Nav1.8 currents before and after the administration of the compound are compared so as to obtain the effect of the compound on the Nav1.8 ion channel.
Except for NaOH and KOH used for acid titration and base titration, all the compounds used for formulating the extracellular fluid and intracellular fluid were purchased from Sigma (St. Louis, Mo.). Extracellular fluid (mM): NaCl, 137; KCl, 4; CaCl2), 1.8; MgCl2, 1; HEPES, 10; glucose, 10; pH 7.4 (NaOH titration). Intracellular fluid (mM): aspartic acid, 140; MgCl2, 2; EGTA, 11; HEPES, 10; pH 7.2 (CsOH titration). All solutions of test compound and control compound contained 1 μM TTX.
The test compound was dissolved in dimethyl sulfoxide (DMSO) at a stock concentration of 9 mM. The stock solution of the test compound was dissolved in the extracellular fluid on the day of the test and formulated into the required concentration.
1) The compound was formulated into solutions with specified concentrations, the solutions were added to the pipelines respectively in order from low to high concentration, and the pipelines were marked.
2) The cell was transferred to the perfusion tank. A positive pressure was applied to the electrode. The tip of the electrode touched the cell. The three-way valve of the air extracting device was adjusted to a three-way state. A negative pressure was applied to the electrode, so that a high-resistance seal was formed between the electrode and the cell.
The negative pressure was applied continuously, thereby causing the cell membrane to rupture and forming a current path.
3) After the current for rupturing the cell membrane became stable, perfusion of different concentrations was carried out in sequence. Once the current was stable for at least one minute, perfusion of the next concentration was carried out.
4) The perfusion tank was cleaned. The perfusion tank was rinsed with the drug solutions in order from high to low concentration, and the rinse duration for each concentration of drug solution was 20 seconds. The perfusion tank was finally rinsed with the extracellular fluid for 1 minute.
The cell was clamped at −80 mV. The cell was depolarized to 10 mV with a square wave lasting 10 milliseconds to obtain the Nav1.8 current. This procedure was repeated every 5 seconds. The maximum current caused by the square wave was measured. After the current became stable, the test compound was perfused. After the response became stable, the blocking intensity was calculated.
The data was stored in the computer system for analysis. Data collection and analysis were carried out by pCLAMP 10 (Molecular Devices, Union City, Calif.), and the analysis results were reviewed by the administrator. Stable current means that the current changes within a limited range over time. The magnitude of stable current was used to calculate the effect of the compound at the concentration.

T1 sequence (Q9Y5Y9 whole entry): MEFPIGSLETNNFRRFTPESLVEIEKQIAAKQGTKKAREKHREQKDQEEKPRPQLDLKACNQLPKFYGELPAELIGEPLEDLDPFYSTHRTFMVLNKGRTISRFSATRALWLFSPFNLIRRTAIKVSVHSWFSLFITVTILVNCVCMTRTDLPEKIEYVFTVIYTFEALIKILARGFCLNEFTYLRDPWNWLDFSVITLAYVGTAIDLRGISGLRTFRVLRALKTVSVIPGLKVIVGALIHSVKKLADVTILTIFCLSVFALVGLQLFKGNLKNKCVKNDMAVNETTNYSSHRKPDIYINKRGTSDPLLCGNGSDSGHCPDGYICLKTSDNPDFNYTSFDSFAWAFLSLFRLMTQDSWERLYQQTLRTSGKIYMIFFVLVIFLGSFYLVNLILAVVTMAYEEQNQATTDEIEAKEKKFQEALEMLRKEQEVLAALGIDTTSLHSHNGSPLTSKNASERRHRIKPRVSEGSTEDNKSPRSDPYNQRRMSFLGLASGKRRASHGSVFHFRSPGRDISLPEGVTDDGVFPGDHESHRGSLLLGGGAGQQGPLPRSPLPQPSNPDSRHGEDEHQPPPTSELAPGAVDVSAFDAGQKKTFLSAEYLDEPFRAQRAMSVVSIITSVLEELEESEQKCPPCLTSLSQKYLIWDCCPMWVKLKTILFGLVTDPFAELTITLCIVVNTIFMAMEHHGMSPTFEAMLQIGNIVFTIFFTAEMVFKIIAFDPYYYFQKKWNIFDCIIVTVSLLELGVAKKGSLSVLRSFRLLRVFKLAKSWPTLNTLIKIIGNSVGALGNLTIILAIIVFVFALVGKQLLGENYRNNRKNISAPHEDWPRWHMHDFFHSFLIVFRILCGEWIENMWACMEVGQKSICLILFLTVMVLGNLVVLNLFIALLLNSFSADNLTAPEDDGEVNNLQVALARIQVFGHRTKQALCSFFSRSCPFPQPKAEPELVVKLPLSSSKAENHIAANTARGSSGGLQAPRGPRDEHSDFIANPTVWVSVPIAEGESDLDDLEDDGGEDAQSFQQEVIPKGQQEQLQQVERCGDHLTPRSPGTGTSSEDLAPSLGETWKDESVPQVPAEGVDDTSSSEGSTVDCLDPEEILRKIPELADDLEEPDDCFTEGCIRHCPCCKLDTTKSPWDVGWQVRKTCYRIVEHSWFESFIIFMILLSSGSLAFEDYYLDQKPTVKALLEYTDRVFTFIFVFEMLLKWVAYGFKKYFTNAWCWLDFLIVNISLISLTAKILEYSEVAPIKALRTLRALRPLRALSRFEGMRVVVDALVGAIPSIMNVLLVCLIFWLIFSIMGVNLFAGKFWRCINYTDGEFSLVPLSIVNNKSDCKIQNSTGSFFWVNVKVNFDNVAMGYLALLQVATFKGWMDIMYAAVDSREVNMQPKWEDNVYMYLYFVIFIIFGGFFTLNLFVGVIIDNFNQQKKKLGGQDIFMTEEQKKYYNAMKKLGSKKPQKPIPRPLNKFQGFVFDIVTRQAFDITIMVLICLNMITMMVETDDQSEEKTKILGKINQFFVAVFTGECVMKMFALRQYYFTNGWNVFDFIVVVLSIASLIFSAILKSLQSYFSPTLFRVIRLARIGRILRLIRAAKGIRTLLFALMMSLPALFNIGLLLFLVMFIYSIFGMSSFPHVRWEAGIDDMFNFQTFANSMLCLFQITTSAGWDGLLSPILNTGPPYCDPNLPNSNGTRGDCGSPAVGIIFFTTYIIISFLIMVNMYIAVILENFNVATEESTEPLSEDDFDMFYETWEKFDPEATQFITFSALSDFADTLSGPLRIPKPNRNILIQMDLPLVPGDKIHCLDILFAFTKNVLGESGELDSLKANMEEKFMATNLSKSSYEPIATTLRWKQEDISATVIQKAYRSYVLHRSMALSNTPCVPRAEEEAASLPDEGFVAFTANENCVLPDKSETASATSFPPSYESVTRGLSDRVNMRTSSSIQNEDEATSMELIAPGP

SMILES: Cc1cc(F)ccc1Oc1cc(C(F)(F)F)c(Cl)cc1C(=O)Nc1cn[nH]c(=O)c1 [Example 2, 5-Chloro-2-(4-fluoro-2-methylphenoxy)-N-(6-oxo-1,6-dihydropyridazin-4-yl)-4-(trifluoromethyl)benzamide]
- Vd/F [1]: 4.71 ± 1.29 L/kg
- AUC [1]: 5.96 ± 4.28 µg·h/mL
- bioavailability [1]: 149%
- CL/F [1]: 0.374 ± 0.377 L/h/kg
- half-life [1]: 47 ± 54.6 h
- Cmax [1]: 0.399 ± 0.153 µg/mL
- MRT [1]: 68.2 ± 78.3 h
- IC50 [2]: 1.3 nM

SMILES: COc1cc(F)ccc1Oc1cc(C(F)(F)F)c(Cl)cc1C(=O)Nc1cn[nH]c(=O)c1 [Example 11, 5-Chloro-2-(4-fluoro-2-methoxyphenoxy)-N-(6-oxo-1,6-dihydropyridazin-4-yl)-4-(trifluoromethyl)benzamide]
- Vd/F [1]: 5.33 ± 0.72 L/kg
- AUC [1]: 1.23 ± 0.621 µg·h/mL
- bioavailability [1]: 98%
- CL/F [1]: 1.94 ± 0.912 L/h/kg
- half-life [1]: 2.3 ± 1.14 h
- Cmax [1]: 0.218 ± 0.103 µg/mL
- IC50 [2]: 1.3 nM

SMILES: O=C(Nc1cn[nH]c(=O)c1)c1cc(Cl)c(C(F)(F)F)cc1Oc1ccc(F)cc1OC1CC1 [Example 12, 5-Chloro-2-(2-cyclopropoxy-4-fluorophenoxy)-N-(6-oxo-1,6-dihydropyridazin-4-yl)-4-(trifluoromethyl)benzamide]
- Vd/F [1]: 4.17 ± 0.587 L/kg
- AUC [1]: 5.98 ± 1.13 µg·h/mL
- bioavailability [1]: 111%
- CL/F [1]: 0.258 ± 0.099 L/h/kg
- half-life [1]: 13.2 ± 7.8 h
- Cmax [1]: 0.435 ± 0.064 µg/mL
- MRT [1]: 19.8 ± 10.4 h
- IC50 [2]: 0.26 nM

SMILES: O=C(Nc1cn[nH]c(=O)c1)c1cc(Cl)c(C(F)(F)F)cc1Oc1ccc(F)cc1OC(F)(F)F [Example 15, 5-Chloro-2-(4-fluoro-2-(trifluoromethoxy)phenoxy)-N-(6-oxo-1,6-dihydropyridazin-4-yl)-4-(trifluoromethyl)benzamide]
- Vd/F [1]: 7.15 ± 0.682 L/kg
- AUC [1]: 5.69 ± 0.552 µg·h/mL
- bioavailability [1]: 94%
- CL/F [1]: 0.0876 ± 0.0066 L/h/kg
- half-life [1]: 56.7 ± 6.6 h
- Cmax [1]: 0.295 ± 0.044 µg/mL
- MRT [1]: 82.4 ± 10.2 h
- IC50 [2]: 4.7 nM

SMILES: O=C(Nc1cn[nH]c(=O)c1)c1cc(Cl)c(C(F)(F)F)cc1Oc1ccc(F)cc1C1CC1 [Example 31, 5-Chloro-2-(2-cyclopropyl-4-fluorophenoxy)-N-(6-oxo-1,6-dihydropyridazin-4-yl)-4-(trifluoromethyl)benzamide]
- Vd/F [1]: 5.44 ± 0.705 L/kg
- AUC [1]: 5.62 ± 1.23 µg·h/mL
- bioavailability [1]: 66%
- CL/F [1]: 0.226 ± 0.162 L/h/kg
- half-life [1]: 33.3 ± 34.8 h
- Cmax [1]: 0.36 ± 0.065 µg/mL
- MRT [1]: 48.3 ± 50.3 h
- IC50 [2]: 0.94 nM

SMILES: Cc1cc(F)ccc1Oc1cc(C(F)(F)F)c(Br)cc1C(=O)Nc1cn[nH]c(=O)c1 [Example 33, 5-Bromo-2-(4-fluoro-2-methylphenoxy)-N-(6-oxo-1,6-dihydropyridazin-4-yl)-4-(trifluoromethyl)benzamide]
- Vd/F [1]: 3.99 ± 0.788 L/kg
- AUC [1]: 5.55 ± 3.02 µg·h/mL
- bioavailability [1]: 99%
- CL/F [1]: 0.384 ± 0.334 L/h/kg
- half-life [1]: 18.6 ± 17.5 h
- Cmax [1]: 0.382 ± 0.088 µg/mL
- MRT [1]: 27.7 ± 24.2 h
- IC50 [2]: 0.86 nM

SMILES: [2H]C([2H])([2H])Oc1cc(F)ccc1Oc1cc(C(F)(F)F)c(Cl)cc1C(=O)Nc1cn[nH]c(=O)c1 [Example 35, 5-Chloro-2-(4-fluoro-2-(methoxy-d3)phenoxy)-N-(6-oxo-1,6-dihydropyridazin-4-yl)-4-(trifluoromethyl)benzamide]
- Vd/F [1]: 5.01 ± 0.875 L/kg
- AUC [1]: 4.33 ± 0.91 µg·h/mL
- bioavailability [1]: 107%
- CL/F [1]: 0.476 ± 0.0882 L/h/kg
- half-life [1]: 7.5 ± 1.92 h
- Cmax [1]: 0.392 ± 0.043 µg/mL
- MRT [1]: 10.6 ± 2.3 h
- IC50 [2]: 0.54 nM

SMILES: O=C(Nc1cn[nH]c(=O)c1)c1cc(Cl)c(C(F)(F)F)cc1Oc1ccc(F)cc1Br [Example 43, 2-(2-Bromo-4-fluorophenoxy)-5-chloro-N-(6-oxo-1,6-dihydropyridazin-4-yl)-4-(trifluoromethyl)benzamide]
- IC50 [2]: 3.36 nM

SMILES: [2H]C([2H])([2H])c1cc(F)ccc1Oc1cc(C(F)(F)F)c(Cl)cc1C(=O)Nc1cn[nH]c(=O)c1 [Example 44, 5-Chloro-2-(4-fluoro-2-(methyl-d3)phenoxy)-N-(6-oxo-1,6-dihydropyridazin-4-yl)-4-(trifluoromethyl)benzamide]
- IC50 [2]: 4.04 nM

SMILES: O=C(Nc1cn[nH]c(=O)c1)c1cc(Cl)c(C(F)(F)F)cc1Oc1ccc(F)cc1Cl [Example 45, 5-Chloro-2-(2-chloro-4-fluorophenoxy)-N-(6-oxo-1,6-dihydropyridazin-4-yl)-4-(trifluoromethyl)benzamide]
- IC50 [2]: 5.08 nM

SMILES: O=C(Nc1cn[nH]c(=O)c1)c1cc(Cl)c(C(F)(F)F)cc1Oc1ccc(F)cc1F [Example 46, 5-Chloro-2-(2,4-difluorophenoxy)-N-(6-oxo-1,6-dihydropyridazin-4-yl)-4-(trifluoromethyl)benzamide]
- IC50 [2]: 8.95 nM

Source: US20220073471A1 (JIANGSU HENGRUI MEDICINE CO., LTD., priority 2019, published 2022)
